Consider one compound from US6509373B1, “Strain of streptomyces, and relevant uses thereof” (Development Center for Biotechnology, priority 1998, dated 2003).

Common to all, as to assay: Antifungal activity of isolated borrelidin in vitro
The subject of one test is P. aphanidermatum. The test is classed as cell-based. Conditions: Pythium aphanidermatum. The protocol:
(§1) 1. The antifungal activity of the isolated borrelidin was tested against P. aphanidermatum, P. splendens, P. sylvaticum, P. capsici and Phytophthora ultimum in vitro.
(§2) 2. The isolated borrelidin was dissolved in methanol. Pasteurized, molten PDA (50 ml) was allowed to cool to 50° C. and mixed with 0.1 ml of borrelidin in methanol. Each fungal strain was tested at a specific concentration (max. 0.2 mg/l), or diluted concentration. A series of five concentrations was used to determine EC50 (the concentration at which 50% fungal growth is inhibited).
(§3) 3. PDA medium (50 ml) was mixed with 0.1 ml of borrelidin in methanol.
(§4) 4. The pathogenic fungi (2 mm mass) were inoculated. A microtitration plate added with methanol was used as control. The inhibition (%) was calculated when the control was fully covered with fungal mass, and EC50 was determined.

For the next test, the system named is P. capsici. The test is classed as cell-based. To be noted: Phytophthora capsici. The protocol:
as §1, §2, §3, §4

The test system of another test is P. sylvaticum. The format is cell-based, Pythium sylvaticum. To be noted: Globisporangium sylvaticum. As to the method: as §1, §2, §3, §4
The test system of another test is P. splendens. The format is cell-based, Pythium splendens. Conditions: Globisporangium splendens. As to the method:
as §1, §2, §3, §4

The subject of the next test is P. ultimum. The test is classed as cell-based, Pythium ultimum. Conditions: Globisporangium ultimum. As to the method:
as §1, §2, §3, §4

The mark [1] stands for this setting: 0.025 mg/l in PDA, read-out: Growth Inhibition (%).
[2] abbreviates: 0.05 mg/l in PDA, read-out: Growth Inhibition (%).
Setting [3] is: 0.2 mg/l in PDA, read-out: Growth Inhibition (%).
Where [4] appears, read: concentration at which 50% fungal growth is inhibited.

In brackets after ≈: the same amount, converted by molar mass.

Regarding `CC1CC(C)CC(C)C(O)/C(C#N)=C\C=C\CC(C2CCCC2C(=O)O)OC(=O)CC(O)C(C)C1` (centres unmarked) [borrelidin, 2-[7-cyano-8,16-dihydro-9,11,13,15-tetramethyl-18-oxooxacyclooctadeca-4,6(E, Z)-diene-2-yl]cyclopentacarboxylic acid], the inhibition at 0.025 µg/mL turned out to be 14% with P. aphanidermatum (setting [1]); 41% with P. capsici (setting [1]); 80% with P. sylvaticum (setting [1]); 36% with P. splendens (setting [1]); 0% with P. ultimum (setting [1]). The inhibition at 0.05 µg/mL with P. aphanidermatum (setting [2]) stood at 45%; in the test on P. capsici (setting [2]), 70%; with P. sylvaticum (setting [2]), 99%; in the test with P. splendens (setting [2]), 70%; in the test with P. ultimum (setting [2]), 17%. Further, the inhibition at 0.2 µg/mL with P. aphanidermatum (setting [3]) was 99%; in the test on P. capsici (setting [3]) it was 92%; with P. sylvaticum (setting [3]), 100%; in the test on P. splendens (setting [3]) it was 99%; with P. ultimum (setting [3]), 83%. Besides, the concentration giving a half-maximal response (EC50) with P. aphanidermatum (setting [4]) is 0.06 µg/mL (≈ 0.123 µM); in the test with P. capsici (setting [4]), 0.027 µg/mL (≈ 0.0551 µM); in the test on P. sylvaticum (setting [4]), 0.01 µg/mL (≈ 0.0204 µM); with P. splendens (setting [4]), 0.03 µg/mL (≈ 0.0613 µM); in the test on P. ultimum (setting [4]), 0.1 µg/mL (≈ 0.204 µM).
